Results on 6 compounds are retold here after patent US20240074442A1, “UVARIA GRANDIFLORA EXTRACT AS A BOTANICAL FUNGICIDE, PREPARATION METHOD THEREFOR, AND APPLICATION THEREOF” (HAINAN UNIVERSITY, priority 2021, published 2024).

In brackets after ≈: the same amount, converted by molar mass. Counter-ions that a name gives are not always drawn. Like-named read-outs stand apart in the source and are kept apart here. Where only a bound is given, the exact number is not on record here.

One assay concerns Colletotrichum capsici. The experiment in a line: Mycelial growth rate method, in vitro fungicidal activity. The following applies: C.C, 50 μg mL^−1; for inhibition at 50 µg/mL: Colletotrichum truncatum. Format: cell-based.
Assay [1] has as its system Phytophthora capsici. The description is as above. Format: cell-based. As to conditions: P.C.
The next assay relates to Gilbertella persicaria. The assay is described as above. As to conditions: G.P. The class given is cell-based.
A further assay has as its system Colletotrichum musae. The description is as above. The class given is cell-based. As to conditions: C.M.
In a further assay the test system is Colletotrichum siamense. The description is as above. The class given is cell-based. The following applies: C.S, 50 μg mL^−1; for inhibition at 50 µg/mL: Colletotrichum siamense.
A further assay has as its system Rhizoctonia solani. Described as above. The following applies: R.S. Format: cell-based.
The test system of the next assay is Fusarium graminearum. The experiment in a line: microbe, parasite or virus in culture. Format: cell-based. The following applies: for inhibition at 50 µg/mL: read-out: Inhibition rate (%).
For assay [2], the system named is Colletotrichum gloeosporioiles. The experiment in a line: Mycelial growth rate method, in vitro fungicidal activity. As to conditions: C.G, 50 μg mL^−1; for inhibition at 50 µg/mL: Colletotrichum. The class given is cell-based.
The next assay deals with Pyricularia oryzae. The experiment in a line: microbe, parasite or virus in culture. The following applies: for inhibition at 50 µg/mL: read-out: Inhibition rate (%). Format: cell-based.
In assay [3] the test system is Neoscytalidium dimidiatum. The experiment in a line: Mycelial growth rate method, in vitro fungicidal activity. Format: cell-based. As to conditions: N.D, 50 μg mL^−1; for inhibition at 50 µg/mL: Neoscytalidium dimidiatum.
In assay [4] the test system is Phytophthora capsici. The experiment in a line: Potted fungicidal activity test, protective effect. The following applies: in vivo.
The next assay has as its system cowpea powdery mildew. The experiment in a line: Potted fungicidal activity test. The following applies: in vivo.
The subject of the next assay is potato late blight. Format: in vivo. The following applies: potted.
Another assay relates to Cucumber downy mildew. The experiment in a line: Potted fungicidal activity test. The following applies: for Control effect (%): potted, cucumber downy mildew. Format: in vivo, Pseudoperonospora cubensis.
The mark [5] stands for this setting: Phytophthora capsici, 50 μg mL^−1.
Where [6] appears, read: Phytophthora capsici, read-out: EC50.
Where [7] appears, read: Gilbertella persicaria, 50 μg mL^−1.
The mark [8] stands for this setting: Gilbertella persicaria, read-out: EC50.
The mark [9] stands for this setting: Colletotrichum musae, 50 μg mL^−1.
The mark [10] stands for this setting: Colletotrichum musae, read-out: EC50.
Where [11] appears, read: Rhizoctonia solani, 50 μg mL^−1.
The mark [12] stands for this setting: Rhizoctonia solani, read-out: EC50.

For orientation: EC50 means the concentration that produces a half-maximal response. Turning to `CO/C=C(/C(=O)OC)c1ccccc1Oc1cc(Oc2ccccc2C#N)ncn1` [Azoxystrobin], the “Inhibition rate (%)” value was 41.27% with Colletotrichum capsici; 69.9% with Phytophthora capsici [1] (50 μg mL^−1); 57.2% in the assay on Gilbertella persicaria (50 μg mL^−1); 51.2% with Colletotrichum musae (50 μg mL^−1); 60.9% in the assay with Colletotrichum siamense; 73.1% in the assay on Rhizoctonia solani (50 μg mL^−1). Further, the “Inhibition rate (%)” value was determined as 65.7% with Fusarium graminearum (F.G, 50 μg mL^−1); 52.5% in assay [2]; 57.8% in the assay with Pyricularia oryzae (P.O, 50 μg mL^−1); 51.2% in assay [3]. Moreover, the EC50 with Phytophthora capsici [1] is 18.81 ± 0.31 µg/mL (≈ 46.6 µM); in the assay with Gilbertella persicaria, 39.09 ± 0.05 µg/mL (≈ 96.9 µM); in the assay with Colletotrichum musae, 52.51 ± 0.42 µg/mL (≈ 130 µM); in the assay with Rhizoctonia solani it was less than 0.06 ± 0.12 µg/mL; with Fusarium graminearum (F.G) it was 5.27 ± 0.21 µg/mL (≈ 13.1 µM); with Pyricularia oryzae (P.O) it was 17.89 ± 0.14 µg/mL (≈ 44.3 µM).

With `COc1ccc2cc3[n+](cc2c1OC)CCc1cc2c(cc1-3)OCO2` [Berberine hydrochloride], in the assay on Phytophthora capsici [4], the “Control effect (%)” value is given as 80.0% and the “Disease index (±SD)” value was 16.0 ± 2.0.

Turning to `COc1ccc(C(=CC(=O)N2CCOCC2)c2ccc(Cl)cc2)cc1OC` [Dimethomorph], in the assay with Phytophthora capsici [4], the “Control effect (%)” value stood at 100.0% and the “Disease index (±SD)” value came to 0.0 ± 0.0.

What is called inhibition is the drop in the measured response relative to a control, in per cent. Consider `COc1ccc2ccc(=O)oc2c1CC=C(C)C` [Osthole], for which the inhibition at 50 µg/mL with Colletotrichum capsici is 4.8%; in the assay with Phytophthora capsici [1] (setting [5]), 55.7%; in the assay with Gilbertella persicaria (setting [7]), 94.3%; in the assay with Colletotrichum musae (setting [9]), 93.3%; in the assay on Colletotrichum siamense, 37.7%; with Rhizoctonia solani (setting [11]), 75.8%. The inhibition at 50 µg/mL worked out at 65.1% with Fusarium graminearum (Fusarium graminearum), 56.9% in assay [2], 89.1% in the assay on Pyricularia oryzae (Pyricularia oryzae) and 68.2% in [3]. Further, the concentration giving a half-maximal response (EC50) is 52.59 ± 0.27 µg/mL (≈ 215 µM) in the assay on Phytophthora capsici [1] (setting [6]); 11.4 ± 0.51 µg/mL (≈ 46.7 µM) with Gilbertella persicaria (setting [8]); 9.18 ± 0.33 µg/mL (≈ 37.6 µM) with Colletotrichum musae (setting [10]); 16 ± 1.39 µg/mL (≈ 65.6 µM) in the assay on Rhizoctonia solani (setting [12]); 21.4 ± 0.61 µg/mL (≈ 87.7 µM) in the assay on Fusarium graminearum (Fusarium graminearum); 11.5 ± 0.42 µg/mL (≈ 47.2 µM) with Pyricularia oryzae (Pyricularia oryzae).

As for `CCCC1COC(Cn2cncn2)(c2ccc(Cl)cc2Cl)O1` (stereo not drawn) [Propiconazole], in the assay on cowpea powdery mildew, the “Control effect (%)” value amounted to 100% and the “Disease index (±SD)” value was 0 ± 0.0.

Regarding `O=C(OC[C@]1(O)C(=O)C=C[C@H](OC(=O)c2ccccc2)[C@H]1O)c1ccccc1` [zeylenone], the inhibition at 50 µg/mL with Colletotrichum capsici was 34.4%; in the assay on Phytophthora capsici [1] (setting [5]) it was 88.1%; in the assay on Gilbertella persicaria (setting [7]) it was 77.6%; in the assay on Colletotrichum musae (setting [9]), 84.3%; in the assay with Colletotrichum siamense, 43.5%; with Rhizoctonia solani (setting [11]) it was 76.8%. The inhibition at 50 µg/mL in the assay with Fusarium graminearum (Fusarium graminearum) was 52.5%; in assay [2], 45%; in the assay with Pyricularia oryzae (Pyricularia oryzae), 66.2%; in assay [3], 43.8%. The EC50 turned out to be 6.98 µg/mL (≈ 18.3 µM) in the assay with Phytophthora capsici [1] (setting [6]); 17.3 ± 2.29 µg/mL (≈ 45.2 µM) with Gilbertella persicaria (setting [8]); 3.37 µg/mL (≈ 8.81 µM) with Colletotrichum musae (setting [10]); 4.91 ± 0.12 µg/mL (≈ 12.8 µM) with Rhizoctonia solani (setting [12]); 22.94 ± 0.11 µg/mL (≈ 60 µM) with Fusarium graminearum (Fusarium graminearum); 21.38 ± 0.14 µg/mL (≈ 55.9 µM) in the assay with Pyricularia oryzae (Pyricularia oryzae). In addition, the “Control effect (%)” value worked out at 0 ± 0.0% with potato late blight (6.25 μg mL^−1); 0 ± 0.0% in the assay with potato late blight (12.5 μg mL^−1); 0 ± 0.0% with potato late blight (25 μg mL^−1); 20 ± 2.0% in the assay on potato late blight (50 μg mL^−1); 25 ± 1.0% in the assay with Cucumber downy mildew (6.25 μg mL^−1); 70 ± 3.0% with Cucumber downy mildew (12.5 μg mL^−1). In addition, the “Control effect (%)” value with Cucumber downy mildew (25 μg mL^−1) amounted to 88 ± 1.7%; in the assay on Cucumber downy mildew (50 μg mL^−1), 99 ± 2.0%. In the assay with Cucumber downy mildew (potted fungicidal activity test, in words), the “control effect on cucumber downy mildew compared with Cyazofamid” value was “equivalent to that of the chemical fungicide Cyazofamid”.
